From patent US6133233A, “Peptide modulation of reperfusion injury” (Kansas State University Research Foundation, priority 1998, dated 2000)

Columns and labels:
[1] = system: leukocyte adherence to mesenteric venular endothelium; experiment: Leukocyte adherence to mesenteric venular endothelium after ischemia-reperfusion; assay type: in vivo, rat; settings: rats, pretreatment with about 5 μM
Experimental: (§1) In this example, the efficiency of PR-39 (SEQ ID NO: 1) was tested in an in vivo model of reperfusion. Measurements of reactive oxygen release, neutrophil adherence to postcapillary venules and neutrophil emigration through venular endothelium, and vascular leakage were made in the presence and absence of PR-39 (SEQ ID No. 1).
(§2) In this example, male Sprague-Dawley rats weighing 220-250 g each were used. The rats were anesthetized by intraperitoneal injection of pentobarbital (30-40 mg/kg rat body weight) and the jugular vein of each rat was cannulated for reagent injection. […] The images were captured with a charge-coupled device camera (Model C2400-60, Hamamatsu Photonics) which was mounted on the microscope, projected onto a television monitor (Model PVM-2030, Sony) and recorded using a videocassette recorder (Model HS-U65, Mitsubishi). […]
(§3) Single, unbranched venules with diameters between 25-35 μm and lengths longer than 150 μm (both measured with a video caliper, Microcirculation Research Institute, Texas A&M University) were selected for the studies. […]
(§4) The number of adherent and transmigrating leukocytes was determined off-line using videotaped images. […] Adherent leukocytes were expressed as the number per 100 μm length of venule. The number of emigrating leukocytes were also determined off-line and were expressed as the number per microscopic field.

[2] = system: bovine pulmonary artery endothelial (BPAE) cells; experiment: Superoxide production in high K+ treated BPAE cells (dichlorodihydrofluorescein); assay type: cell-based; settings: 10 μM, 30 min
Experimental: PR-39 (SEQ ID No. 1) was also tested in a cell other than neutrophils, namely bovine pulmonary artery endothelial (BPAE) cells. In these cells, membrane depolarization induced by high K^+ treatment results in the production of superoxide anion by an endothelial NADPH oxidase enzyme that may be similar to the oxidase found in neutrophils. In these experiments, cultured BPAE cells were loaded with an oxidation-sensitive dye, dichlorodihydrofluorescein, then treated with high K^+, plus or minus PR-39 (SEQ ID No. 1) or PR-26 (SEQ ID No. 2), for 30 min. Cells were then scraped, pelleted, washed, and sonicated. Fluorescence of the supernatant was then measured to assess superoxide production.

venular protein leakage = experiment: Albumin leakage through mesenteric venules (vascular integrity) after ischemia-reperfusion; assay type: in vivo, rat; settings: rats, PR-39 pretreatment
Experimental: An assessment of vascular integrity was made by quantification of albumin leakage through mesenteric venules. Three groups of Sprague-Dawley rats (6 rats/group and respectively labeled control, I/R and I/R+PR-39) were obtained. […] The control group was subjected to a similar surgical preparation, but without occlusion of the mesenteric artery or PR-39 (SEQ ID No. 1) administration. Fifty mg/kg fluorescein isothiocyanate-labeled bovine albumin was administered IV to each of the rats of each group, 15 min. prior to release of occlusion of the rats of the I/R and I/R+PR-39 (SEQ ID No. 1) groups. Fluorescence intensities within three segments of the venule under study (Iv) and in three adjacent areas of interstitium (Ii) were detected using a SIT camera (Model C-2400-08; Hamamatsu Photonics). Measurements were made at the basal, 20-30 min., and 50-60 min. time points using a computer-assisted digital imaging processor (NIH Image 1.35 on a Macintosh computer). An index of albumin leakage was expressed as the ratio of Ii to Iv at each time.

[3] = system: neutrophil oxidase activity; experiment: Superoxide anion production in whole neutrophils (SOD-inhibitable ferricytochrome c reduction, PMA); assay type: cell-based; settings: concentrations 5-10 μM
Experimental: (§5) In these experiments, superoxide anion production by neutrophils was determined by the superoxide dismutase-inhibitable reduction of ferricytochrome c.
(§6) Four samples were prepared for each animal: (1) neutrophils (1×10^6 cells) in Hanks' balanced salt solution (HBSS; without phenol red) mixed with 100 μl (80 μM) of ferricytochrome c, 10 μl (0.1 μg) phorbol myristate acetate (PMA), and 100 μl (300 U) of superoxide dismutase (SOD); (2) cells treated with ferricytochrome c only; (3) cells treated with ferricytochrome c and PMA; and (4) cells treated with ferricytochrome c and SOD. The mixtures were incubated at 39° C. for 20 min. and then centrifuged at 4° C. (350×g) for 5 min. Cell-free supernatant (200 μl) was transferred to flat-bottom 96-well plates, and OD was read at 550 nm using HBSS as the blank. Production of superoxide anion was calculated using the following formula: OD of [(3+4)-(1+2)]×190.5=nm superoxide/1 ×10^6 cells/20 min.

[4] = system: leukocyte emigration through venular endothelium; experiment: Leukocyte emigration through venular endothelium after ischemia-reperfusion; assay type: in vivo, rat; settings: rats, pretreatment with about 5 μM
Experimental: as §1, §2, §3, §4

reactive oxygen species = experiment: Reactive oxygen (oxidant) production after mesenteric ischemia-reperfusion, dihydrorhodamine 123 intravital fluorescence; assay type: in vivo, rat; settings: rats
Experimental: as §1
as §2, with “injection. The carotid artery of each rat was also cannulated for measurements of mean arterial blood pressure using a pressure transducer (Model P23a, Statham) and physiological recorder (Grass Instruments).” for “injection.”
as §3
In more detail, generation of reactive oxygen levels were measured by the dihydrorhodamine 123 dye. […]

neutrophil chemotaxis = experiment: Neutrophil microchemotaxis assay; assay type: cell-based; settings: rat neutrophils; PR-39 10 μM
Description: A microchemotaxis assay was used to examine the effect of PR-39 (SEQ ID No. 1) and another basic, PXXP-containing antimicrobial peptide, Bac5 (SEQ ID No. 7), on neutrophil chemotaxis alone and in combination. Whole blood was obtained from 250-350 g Sprague-Dawley rats by terminal cardiac puncture into acid citrate dextrose solution. Neutrophils were isolated by dextran sedimentation, followed by density-gradient centrifugation and hypotonic lysis to remove contaminating erythrocytes. Micropore filters (5 μM-pore polycarbonate membrane) were used to separate the lower and upper chambers of the microchemotaxis chamber. Attractants to be tested were diluted in RPMI medium and added (35 μl) to the lower wells of the chamber; 50 μl of the cell suspension ([…]) was added to the upper chamber. Chambers were placed in a humidified atmosphere of 5% CO2 in air at 37° C. for 40 min. Cells on the underside of the filters were fixed, stained, and counted using high-power brightfield microscopy. For each sample, four test wells containing chemoattractant were used. The total number of neutrophils in five fields was counted for each well. All results are expressed as a chemotaxis index defined as […].

[5] = system: leukocyte adherence and extravasation; settings: cited from earlier work
intact human neutrophils = experiment: Superoxide anion generation in intact human neutrophils; assay type: cell-based
Experimental: as §5, §6

[6] = 2 μM adenosine, cat mesenteric model

Question: For “PR-39: proline/arginine-rich peptide of 39 residues (29/39 proline and arginine), most preferred peptide (RRRPRPPYLPRPRPPPFFPPRLPPRIPPGFPPRFPPRFP)”, which “Neutrophil adhesion to venular endothelium” value [1] is on record?
Answer: Its value is “no apparent endothelium neutrophil interaction in excess of basal levels”.

Question: And the “Oxidase activity (superoxide production) in pulmonary endothelium” value [2]?
Answer: Its value is “decrease oxidase activity”.

Question: And the “Vascular integrity (albumin leakage index Ii/Iv)” value (venular protein leakage)?
Answer: Its value is “prevented loss of vascular integrity”.

Question: And the “Inhibition of neutrophil oxidase activity (superoxide anion generation in intact neutrophils)” value [3]?
Answer: The value was “inhibition of superoxide anion generation”.

Question: What about the Basal neutrophil emigration ([4]; basal) of the same compound?
Answer: The Basal neutrophil emigration was “appeared to be diminished”.

Question: What about the Transvascular neutrophil emigration ([4]; both post-release time points) of the same compound?
Answer: The Transvascular neutrophil emigration was “no migrating neutrophils observed”.

Question: And the “Oxidant release (reactive oxygen production)” value (reactive oxygen species; PR-39 pretreatment, comparison with adenosine)?
Answer: The value was “complete prevention of oxidant release”.

Question: And the Oxidant production (reactive oxygen species; about 5 μM PR-39 pre-ischemia, 20 min ischemia, 30 minutes after resumption of mesenteric venular circulation)?
Answer: Its Oxidant production is “significantly inhibited”.

Question: And the “Neutrophil chemotaxis, examined alone” value (neutrophil chemotaxis)?
Answer: The value was “chemotactic for neutrophils”.

Question: With `Nc1ncnc2c1ncn2[C@@H]1O[C@H](CO)[C@@H](O)[C@H]1O` [adenosine] as the compound, how does the “Reduction of reperfusion injury-induced adhesion of neutrophils” value [5, 6] read?
Answer: The value was 65%.

Question: What about the “Reduction of reperfusion injury-induced extravasation of neutrophils” value [5, 6] of the same compound?
Answer: Its value is 32%.

Question: What about the “Reduction of oxidant release” value ([5]; adenosine treatment, literature) of the same compound?
Answer: The value was 20%.

Question: For “Bac7: cationic, proline-rich, PXXP-containing peptide (RRIRPRPPRLPRPRPRPLYC)”, which “Inhibition of neutrophil oxidase activity (superoxide anion generation in intact neutrophils)” value [3] is on record?
Answer: The value was “inhibition of superoxide anion generation”.

Question: Which “Neutrophil chemotaxis, examined alone” value (neutrophil chemotaxis) does the source give for “platelet activating factor [PAF, reference compound]” here?
Answer: The value was “chemotactic for neutrophils”.

Question: With “Bac5: basic, PXXP-containing antimicrobial peptide (RFRPPIRRPPIRPPFYPPFRPPIRPPIFPPIRPPFRPPLGPFP)” as the compound, how does the “Inhibition of neutrophil oxidase activity (superoxide anion generation in intact neutrophils)” value [3] read?
Answer: Its value is “inhibition of superoxide anion generation”.

Question: With “C7: non-naturally occurring, cationic, PXXP-containing peptide (RRGPRHPQTRLPRPLPDP)” as the compound, how does the “Inhibition of superoxide anion generation in intact human neutrophils” value (intact human neutrophils) read?
Answer: The value was “inhibition of superoxide anion generation”.
